# Experimental data taken from US20200230205A1, “COMPOSITIONS AND METHODS FOR TREATING MYELIN DISORDERS” (CASE WESTERN RESERVE UNIVERSITY, priority 2017, published 2020).
# Experiments:
# MMP-2 = MMP-2 in OPC conditioned media or lysate (gelatin zymography, western blot); format: cell-based, mouse
# Procedure: To assess MMP-2 or 10 in OPC CM or lysates, OPCs were incubated on precoated PLL, aggrecan, and laminin as described above. OPCs were treated with vehicle, 2.5 μM ISP or SISP for 2 days at 37° C. CM was then harvested and concentrated using Milipore Ultracel YM-C centrifugal filter units at max speed (Eppendorf Centrifuge 5415D) for 30 minutes at 4° C. […] of concentrated CM was loaded into each lane. OPC lysates were assessed using western blot techniques described below with […] protein loaded from each group.
# Tissue samples or cerebellar slices or purified OPC cells were homogenized with RIPA lysis buffer and protein concentration was determined by Pierce BCA protein assay kit according to the manufacture instruction (Thermo Fisher). Then, equal amounts of protein were loaded to 15% SDS-PAGE gels, and electrophoretically transferred to PVDF membranes (Millipore). The membranes were blocked in 0.1% TPBS buffer with 5% non-fat milk for 1h at room temperature and probed with indicated primary antibodies overnight at 4° C. and followed by secondary antibody conjugated to horseradish peroxidase (HRP). The following primary antibodies were used: MBP (SMI-99P, Covance, 1:1000), CS-56 (C8035, Sigma, 1:1000), Laminin (L9393, Sigma, 1:1000), GAPDH (AF5718, R and D Systems, 1:1000), MMP-2 (AF1488, R and D Systems, 1:1000), MMP-10 (MAB910, R and D Systems, 1:1000), and […] (sc-47778, Santa Cruz, 1:1000). Enhanced chemiluminescence was performed with a West Pico Kit (Thermo Fisher) and detected by FluorChem E system (ProteinSimple, USA). The density of bands was quantified using ImageJ software (NIH).
# CM was collected from 1×10^6 OPCs incubated on PLL, 1 μg/mL laminin, and 2 μg/mL aggrecan coated 6-well plates. OPCs were treated with vehicle, 2.5 μM ISP or SISP for 2 days at 37° C. […] Following washes with destaining buffer (40% MeOH, 10% Acetic Acid), Zymograms were imaged and the amount of gelatin degradation was assessed using ImageJ in a method described in the western blot section.
# laminin = assay: Laminin degradation by OPC conditioned media (spot staining and western blot); format: cell-based, mouse
# Procedure: CSPG gradients were prepared as described previously (Tom, V. J., et al. Studies on the Development and Behavior of the Dystrophic Growth Cone, the Hallmark of Regeneration Failure, in an In vitro Model of the Glial Scar and after Spinal Cord Injury.). 24-well glass coverslip were coated with poly-L-lysine and nitrocellulose, and a mixture of 700 μg/mL aggrecan (A1960 Sigma) and 10 μg/mL laminin (11243217001 Sigma) spotted on the coated coverslip. After drying, coated coverslips were then incubated with laminin at 37° C. for 3h. Purified OPCs were plated at a density of 10,000/coverslip and cultured in DMEM/F12 medium containing with N2, PDGF (20 ng/ml), FGF (20 ng/ml), NT-3 (5 ng/ml), CNTF (O1 ng/ml), Glutamine (200 mM). Coverslips were stained with CS-56 (C8035, Sigma, 1:500) and O4 antibodies (Hybridoma Core Cleveland Clinic, 1:10). O4-positive cells crossing the aggrecan border were counted for each spot. For CSPG gradient quantification, 1×10^6 OPCs were plated per well on PLL, 1 μg/mL laminin, and 2 μg/mL aggrecan coated 6-well plates. OPCs treated with vehicle, 2.5 μM ISP, or 2.5 μM SISP for 2 days at 37° C. CM was harvested and incubated with freshly made spots. […] Using ImageJ software (NIH), pixel intensities of the CS-56 or laminin spot rims were quantified using the same ROI. […]
sequence,measurement,setting,value
GRKKRRQRRRCDMAEHMERLKANDSLKLSQEYESI [ISP],"MMP-2 gelatin-degrading activity, zymography","MMP-2; OPC CM, 2.5 μM ISP vs controls",significantly increased
same,MMP-2 expression in OPC lysates normalized over GAPDH,"MMP-2; OPC lysates, ISP",decrease in MMP-2 expression
same,"MMP-2 in OPC CM, western blot","MMP-2; concentrated OPC CM, 2.5 μM ISP",clearly enhanced
same,"laminin portion of the spot, immunostaining",laminin; CM of OPCs treated with 2.5 μM ISP,completely spared
same,laminin immunoblot,"laminin; OPC CM, 2.5 μM ISP, laminin 10 μg/mL",no significant changes
